Experimental findings from patent US6734181B2, “Pyrrolopyridazine compounds” (Sankyo Company, Limited, priority 2000, dated 2004) are described below.

Data set [1] deals with T1, proton potassium-adenosine triphosphatase (H+.K+-ATPase) (Sus scrofa, UniProt P19156).
T1 construct: A microsomal fraction prepared in accordance with the method of Sachs, et al; from tissue; host or cells: swine gastric mucosa, microsomal fraction (density gradient ultracentrifugation)
The experiment in a line: Test on activity of proton potassium-adenosine triphosphatase (H+.K+-ATPase). The class given is biochemical. The following applies: swine gastric mucosal microsomal fraction, pH 6.85, 37° C.; read-out: 50% inhibitory concentration (IC50) against proton potassium-adenosine triphosphatase (converted). As for the experimental part:
Test on Activity of Proton•potassium-adenosine Triphosphatase (H^+.K^+-ATPase) A microsomal fraction prepared in accordance with the method of Sachs, et al. [J. Bio. Chem., 251, 7690(1976)] by homogenizing a fresh gastric mucosal layer of swine and then subjecting the homogenate to density gradient ultra centrifugation was employed as a proton potassium-adenosine triphosphatase preparation. A solution (10 μl) of a test compound dissolved in dimethyl sulfoxide was added to 0.75 ml of a 70 mM tris hydrochloric acid buffer (5 mM magnesium chloride, 20 mM potassium chloride, pH=6.85) containing 30 to 80 μg/ml, in terms of the protein concentration, of the enzyme preparation. The mixture was incubated with 200 times/min of agitation at 37° C. for 45 minutes. The enzymatic reaction was started by adding 0.25 ml of an 8 mM solution of disodium adenosine triphosphate. After this enzymatic reaction was continued for 20 minutes, 1 ml of a 10% trichloroacetic acid—activated charcoal (100 mg) solution was added to terminate the reaction. […] The amount of inorganic phosphoric acid in a reaction mixture free from potassium chloride was also measured. By subtracting this amount from the amount of inorganic phosphoric acid in the presence of potassium chloride, protonpotassium-adenosine triphosphatase activity (H^+.K^+-ATPase) was determined. […]

For data set [2], the system named is gastric acid secretion. As to the kind of experiment: Test for inhibition on gastric acid secretion in rats (pylorus ligation). The class given is in vivo. The following applies: pylorus-ligated rats, orally administered, four hours after ligation. On the procedure: Test for Inhibition on Gastric Acid Secretion in Rats
After a group of rats was fasted overnight, they were subjected to midline abdominal incision and their pylorus was ligated under anesthesia with ether. The stomach and duodenum were returned to their original positions in the body, followed by closing at the abdominal incision part. A test compound (0.3 to 10 mg/ml) was suspended in an aqueous solution containing 0.5% of sodium carboxymethylcellulose and 0.4% of Tween 80 (trade mark). The resulting suspension (1 ml/kg of body weight) was orally administered to the rats through a stomach tube. Four hours after the ligation, the rats were sacrificed by inhalation of CO2 gas. They were subjected to abdominal incision to remove their stomach. The content of the stomach was collected in a glass-made graduated centrifuge tube. After centrifugation, the amount (ml) of the supernatant and the amount (ml) of the precipitate were measured. The precipitate of the amount exceeding 0.5 ml was regarded as feces and excluded from the data. The supernatant ([…]) was poured into a test tube. Distilled water (4 ml) was added to the solution, and the solution was titrated to pH 7.0 with 0.01 N sodium hydroxide. […] Each parameter was calculated in accordance with the following equations: […]

Data set [3] has as its system Helicobacter pylori strains 9470, 9472 and 9474. The experiment in a line: Antibacterial action against Helicobacter pylori (MIC, agar dilution). The following applies: 72 h, 37° C., 3 days, microaerophilic conditions, read-out: MIC (Minimum Inhibitory Concentration). It is filed as cell-based. On the procedure: Antibacterial Action Against Helicobacter Pylori The antibacterial activity of the compound of the invention was evaluated by using Helicobacter pylori strains 9470, 9472 and 9474 and determining MIC (Minimum Inhibitory Concentration) of the compound of the invention against Helicobacter pylori. Helicobacter pylori was cultured by plating for 4 days. A medium was prepared by dissolving Brain Heart Infusion Agar (product of Difco Laboratories) in a prescribed amount of distilled water, sterilizing in an autoclave, adding equine blood (product of Nippon Seibutsu Zairyo) to give a concentration thereof of 7% and then solidifying the mixture. Under microaerophilic conditions, Helicobacter pylori which had been cultured at 37° C. for 4 days was suspended in physiological saline to give its viable count of about 10^8 CFU/ml. The suspension was then diluted to 100 times and a portion (about 10 μl) of the diluted suspension was inoculated in a medium for measuring MIC. The medium employed for measuring MIC has the same composition as the preculture medium. A compound of this invention was dissolved in dimethyl sulfoxide (DMSO) and two-fold serial dilutions were made with sterilized water. After mixing the solution and the medium in a ratio of 1:99, a solidified product in the Petri dish was employed as an MIC measuring medium. […]

SMILES strings stand for the structures.

T1 sequence (P19156 2-1034 limits assumed): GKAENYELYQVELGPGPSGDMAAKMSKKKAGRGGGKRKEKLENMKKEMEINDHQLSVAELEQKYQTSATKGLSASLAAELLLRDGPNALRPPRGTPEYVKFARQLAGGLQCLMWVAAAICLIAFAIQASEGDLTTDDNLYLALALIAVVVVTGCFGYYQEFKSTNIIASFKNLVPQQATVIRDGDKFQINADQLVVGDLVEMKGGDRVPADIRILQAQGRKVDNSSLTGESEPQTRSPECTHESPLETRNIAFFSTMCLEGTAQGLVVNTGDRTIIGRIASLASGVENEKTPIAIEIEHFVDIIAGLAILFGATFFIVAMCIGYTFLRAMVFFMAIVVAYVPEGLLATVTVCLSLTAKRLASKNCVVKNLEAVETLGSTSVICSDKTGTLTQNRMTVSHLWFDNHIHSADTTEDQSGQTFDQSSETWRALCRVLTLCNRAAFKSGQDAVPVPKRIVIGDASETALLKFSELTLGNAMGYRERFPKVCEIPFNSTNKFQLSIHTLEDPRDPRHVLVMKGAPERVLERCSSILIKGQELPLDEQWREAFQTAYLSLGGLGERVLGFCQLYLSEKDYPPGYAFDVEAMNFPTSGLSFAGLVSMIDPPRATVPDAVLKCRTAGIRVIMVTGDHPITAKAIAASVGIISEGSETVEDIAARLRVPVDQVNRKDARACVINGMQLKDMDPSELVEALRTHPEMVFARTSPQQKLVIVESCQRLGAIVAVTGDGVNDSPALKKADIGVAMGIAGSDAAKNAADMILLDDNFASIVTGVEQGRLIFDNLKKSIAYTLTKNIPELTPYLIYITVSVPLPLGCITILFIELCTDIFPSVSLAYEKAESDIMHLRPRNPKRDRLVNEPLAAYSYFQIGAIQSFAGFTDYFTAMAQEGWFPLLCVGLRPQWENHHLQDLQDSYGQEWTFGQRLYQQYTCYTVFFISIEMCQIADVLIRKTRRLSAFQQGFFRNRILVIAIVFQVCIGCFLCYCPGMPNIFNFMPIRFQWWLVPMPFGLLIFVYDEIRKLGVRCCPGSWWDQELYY
T1 sequence (P18434 whole entry partner): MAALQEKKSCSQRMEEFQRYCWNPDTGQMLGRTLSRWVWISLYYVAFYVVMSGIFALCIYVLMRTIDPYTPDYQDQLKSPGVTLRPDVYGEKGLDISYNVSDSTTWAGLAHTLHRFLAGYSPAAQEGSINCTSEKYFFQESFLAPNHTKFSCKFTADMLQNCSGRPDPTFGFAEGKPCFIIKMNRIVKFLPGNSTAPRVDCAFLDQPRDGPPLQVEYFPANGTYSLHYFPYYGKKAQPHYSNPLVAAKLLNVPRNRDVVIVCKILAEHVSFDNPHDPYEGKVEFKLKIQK

`Cc1c(C=O)c2cnnc(OCc3ccc(F)cc3)c2n1C[C@H]1C[C@@H]1C` had a melting point of 138.5 to 139.5 °C.

The molecule `CC(=O)OCc1c(C)n(C[C@H]2C[C@@H]2C)c2c(OCc3ccc(F)cc3)nncc12` [Example 1, 3-Acetoxymethyl-7-(4-fluorobenzyloxy)-2-methyl-1-[(1S,2S)-2-methylcyclopropylmethyl]pyrrolo[2,3-d]-pyridazine] showed a melting point of 122 to 123 °C.

In the case of `Cc1c(CO)c2cnnc(OCc3ccc(F)cc3)c2n1C[C@H]1C[C@@H]1C` [Example 2, 7-(4-Fluorobenzyloxy)-3-hydroxymethyl-2-methyl-1-[(1S,2S)-2-methylcyclopropylmethyl]pyrrolo[2,3-d]-pyridazine], the melting point lay in the range of 128 to 129 °C. In addition, the IC50 in data set [1] is 42.2 nM. The “50% inhibitory dose (ID50), gastric acid output” value in data set [2] was “less than 10 mg/kg”. Moreover, the MIC in data set [3] was under 12.5 µg/mL.
